Source: patent publication US8192962B2, “Processes for detecting toxic substances” (Daikin Industries, Ltd., priority 2001, dated 2012)

Test system: Transport facilitation protein genes
Assay: DNA chip mRNA expression in yeast, transport facilitation protein genes (Table 5)
Format: cell-based, Saccharomyces cerevisiae S288C
Outline: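 Untreated cultures served as reference for log-phase S288C yeast given a growth-inhibiting, non-lethal toxicant dose for 2 h at 25° C. in YPD. Gene expression was measured on a whole-genome DNA chip from Cy3/Cy5-labeled cDNA.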

Measured: The level of expressed mRNA in the presence of chemical substance/The level of expressed mRNA in the absence of chemical substance

Na2As [(1)]
1.9: yeast gene YBR293W
1.5: yeast gene YGR096W | yeast gene YKL016C | yeast gene YOL163W | yeast gene YPL134C
2.2: yeast gene YPR194C
0.8: yeast gene YBL099W | yeast gene YBR127C | yeast gene YBR207W | yeast gene YCR024C-A | yeast gene YDL128W | yeast gene YDR345C | yeast gene YDR387C | yeast gene YGL104C | yeast gene YGR065C | yeast gene YGR191W | yeast gene YHR175W | yeast gene YIL022W | yeast gene YJL212C | yeast gene YKL146W | yeast gene YKR067W | yeast gene YMR162C | yeast gene YMR203W | yeast gene YOR130C
1.4: yeast gene YBR295W | yeast gene YDL198C | yeast gene YKR039W | yeast gene YLR295C
2.6: yeast gene YOL119C
0.5: yeast gene YPL036W
0.3: yeast gene YEL065W
1.6: yeast gene YBR052C | yeast gene YCL038C | yeast gene YCR098C | yeast gene YER053C | yeast gene YFL054C | yeast gene YHL040C | yeast gene YOR153W
1.2: yeast gene YDL210W | yeast gene YDR343C | yeast gene YEL027W | yeast gene YFL011W | yeast gene YGR281W | yeast gene YJL219W | yeast gene YOR035C | yeast gene YPL271W
6.3: yeast gene YBR294W
1.0: yeast gene YBL030C | yeast gene YDL245C | yeast gene YGR082W | yeast gene YIL006W | yeast gene YOR328W
0.9: yeast gene YBR132C | yeast gene YGL167C | yeast gene YGR224W | yeast gene YHR026W | yeast gene YIL088C | yeast gene YJR106W | yeast gene YJR121W | yeast gene YPR192W
1.1: yeast gene YBR068C | yeast gene YBR298C | yeast gene YCL025C | yeast gene YGR138C | yeast gene YGR197C | yeast gene YIL056W | yeast gene YJR077C | yeast gene YLR348C | yeast gene YNL055C | yeast gene YNR072W | yeast gene YOL156W | yeast gene YOR332W | yeast gene YOR348C
0.6: yeast gene YDR038C | yeast gene YDR039C | yeast gene YGL008C | yeast gene YGR260W | yeast gene YHL047C | yeast gene YLL028W
1.3: yeast gene YDR086C | yeast gene YDR298C | yeast gene YLR081W | yeast gene YMR011W
2.8: yeast gene YDR342C
0.7: yeast gene YCR037C | yeast gene YDR270W | yeast gene YDR497C | yeast gene YEL063C | yeast gene YFL041W | yeast gene YFL050C | yeast gene YGL255W | yeast gene YHL035C | yeast gene YHR094C | yeast gene YJL034W | yeast gene YLR378C | yeast gene YOR273C | yeast gene YOR316C
2.3: yeast gene YHR092C
2.5: yeast gene YGL006W | yeast gene YGR055W
